Assay results taken from patent US20260226493A1, “HERBICIDE RESISTANT PLANTS” (SYNGENTA CROP PROTECTION AG, priority 2023, published 2026).

How the values were obtained:
Experiment in all cases: BIO3-BIO1 mutant enzyme activity in the presence of herbicide, percentage inhibition (fluorometric DAPA assay)
Assay type in all cases: biochemical
Details in all cases: read-out: percentage inhibition
[1] = molecular target: T1, Arabidopsis thaliana BIO3-BIO1 (BioDA) mutants (Arabidopsis thaliana, UniProt B0F481, A609M)
T1 construct: with the predicted N-terminal mitochondrial transit peptide removed; 6xHis-tag (N); thrombin cleavage site (N); made in house; host or cells: E. coli BL21 (DE3) bioA
In short: (§1)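 His-tagged Arabidopsis BIO3-BIO1 mutants, expressed in E. coli and purified by IMAC and SEC, were preincubated at 50 nM with herbicide for 10 min at 20 °C in EPPS pH 8.6 with pyridoxal phosphate. Reaction with 100 μM spermidine and 20 μM KAPA ran 75 min at 20 °C; DAPA was derivatised with o-phthalaldehyde and read at ex 410/em 470 nm. […].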

[2] = molecular target: T2, Arabidopsis thaliana BIO3-BIO1 (BioDA) mutants (Arabidopsis thaliana, UniProt B0F481, A609W)
T2 construct: with the predicted N-terminal mitochondrial transit peptide removed; 6xHis-tag (N); thrombin cleavage site (N); made in house; host or cells: E. coli BL21 (DE3) bioA
In short: as §1

[3] = molecular target: T3, Arabidopsis thaliana BIO3-BIO1 (BioDA) mutants (Arabidopsis thaliana, UniProt B0F481, F348A)
T3 construct: with the predicted N-terminal mitochondrial transit peptide removed; 6xHis-tag (N); thrombin cleavage site (N); made in house; host or cells: E. coli BL21 (DE3) bioA
In short: as §1

[4] = molecular target: T4, Arabidopsis thaliana BIO3-BIO1 (BioDA) mutants (Arabidopsis thaliana, UniProt B0F481, F348N)
T4 construct: with the predicted N-terminal mitochondrial transit peptide removed; 6xHis-tag (N); thrombin cleavage site (N); made in house; host or cells: E. coli BL21 (DE3) bioA
In short: as §1

[5] = molecular target: T5, Arabidopsis thaliana BIO3-BIO1 (BioDA) mutants (Arabidopsis thaliana, UniProt B0F481, G513A)
T5 construct: with the predicted N-terminal mitochondrial transit peptide removed; 6xHis-tag (N); thrombin cleavage site (N); made in house; host or cells: E. coli BL21 (DE3) bioA
In short: as §1

[6] = molecular target: T6, Arabidopsis thaliana BIO3-BIO1 (BioDA) mutants (Arabidopsis thaliana, UniProt B0F481, P529A)
T6 construct: with the predicted N-terminal mitochondrial transit peptide removed; 6xHis-tag (N); thrombin cleavage site (N); made in house; host or cells: E. coli BL21 (DE3) bioA
In short: as §1

[7] = molecular target: T7, Arabidopsis thaliana BIO3-BIO1 (BioDA) mutants (Arabidopsis thaliana, UniProt B0F481, R756K)
T7 construct: with the predicted N-terminal mitochondrial transit peptide removed; 6xHis-tag (N); thrombin cleavage site (N); made in house; host or cells: E. coli BL21 (DE3) bioA
In short: as §1

[8] = molecular target: T8, Arabidopsis thaliana BIO3-BIO1 (BioDA) mutants (Arabidopsis thaliana, UniProt B0F481, S509D)
T8 construct: with the predicted N-terminal mitochondrial transit peptide removed; 6xHis-tag (N); thrombin cleavage site (N); made in house; host or cells: E. coli BL21 (DE3) bioA
In short: as §1

[9] = molecular target: T9, Arabidopsis thaliana BIO3-BIO1 (BioDA) mutants (Arabidopsis thaliana, UniProt B0F481, T393V)
T9 construct: with the predicted N-terminal mitochondrial transit peptide removed; 6xHis-tag (N); thrombin cleavage site (N); made in house; host or cells: E. coli BL21 (DE3) bioA
In short: as §1

[10] = molecular target: T10, Arabidopsis thaliana BIO3-BIO1 (BioDA) mutants (Arabidopsis thaliana, UniProt B0F481, T512D)
T10 construct: with the predicted N-terminal mitochondrial transit peptide removed; 6xHis-tag (N); thrombin cleavage site (N); made in house; host or cells: E. coli BL21 (DE3) bioA
In short: as §1

[11] = molecular target: T11, Arabidopsis thaliana BIO3-BIO1 (BioDA) mutants (Arabidopsis thaliana, UniProt B0F481, W392C)
T11 construct: with the predicted N-terminal mitochondrial transit peptide removed; 6xHis-tag (N); thrombin cleavage site (N); made in house; host or cells: E. coli BL21 (DE3) bioA
In short: as §1

[12] = molecular target: T12, Arabidopsis thaliana BIO3-BIO1 (BioDA) mutants (Arabidopsis thaliana, UniProt B0F481, W392S)
T12 construct: with the predicted N-terminal mitochondrial transit peptide removed; 6xHis-tag (N); thrombin cleavage site (N); made in house; host or cells: E. coli BL21 (DE3) bioA
In short: as §1

T7 sequence (B0F481 23-833 R756K): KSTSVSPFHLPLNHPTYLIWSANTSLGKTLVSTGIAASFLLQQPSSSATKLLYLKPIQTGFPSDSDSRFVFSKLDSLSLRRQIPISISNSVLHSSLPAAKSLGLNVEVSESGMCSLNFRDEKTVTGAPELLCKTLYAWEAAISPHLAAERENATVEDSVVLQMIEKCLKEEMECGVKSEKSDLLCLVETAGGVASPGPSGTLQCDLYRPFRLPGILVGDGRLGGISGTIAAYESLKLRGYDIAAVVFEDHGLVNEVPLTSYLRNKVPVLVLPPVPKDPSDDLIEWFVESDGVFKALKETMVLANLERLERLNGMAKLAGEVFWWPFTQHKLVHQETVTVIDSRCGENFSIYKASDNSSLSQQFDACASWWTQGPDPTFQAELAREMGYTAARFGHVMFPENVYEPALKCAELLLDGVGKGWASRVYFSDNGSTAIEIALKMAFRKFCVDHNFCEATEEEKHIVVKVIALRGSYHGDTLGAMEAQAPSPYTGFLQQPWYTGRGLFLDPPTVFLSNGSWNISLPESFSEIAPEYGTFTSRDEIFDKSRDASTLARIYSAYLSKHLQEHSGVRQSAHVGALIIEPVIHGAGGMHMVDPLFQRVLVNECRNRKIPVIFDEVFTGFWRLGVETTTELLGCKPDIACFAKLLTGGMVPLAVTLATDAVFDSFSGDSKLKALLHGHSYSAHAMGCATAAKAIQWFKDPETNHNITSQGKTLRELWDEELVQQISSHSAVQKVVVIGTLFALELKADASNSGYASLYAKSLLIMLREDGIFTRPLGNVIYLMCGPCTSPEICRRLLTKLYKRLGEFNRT
T6 sequence (B0F481 23-833 P529A): as the sequence (B0F481 23-833 R756K) above, with P507A, K734R counted along it
T3 sequence (B0F481 23-833 F348A): as the sequence (B0F481 23-833 R756K) above, with F326A, K734R counted along it
T1 sequence (B0F481 23-833 A609M): as the sequence (B0F481 23-833 R756K) above, with A587M, K734R counted along it
T9 sequence (B0F481 23-833 T393V): as the sequence (B0F481 23-833 R756K) above, with T371V, K734R counted along it
T11 sequence (B0F481 23-833 W392C): as the sequence (B0F481 23-833 R756K) above, with W370C, K734R counted along it
T8 sequence (B0F481 23-833 S509D): as the sequence (B0F481 23-833 R756K) above, with S487D, K734R counted along it
T4 sequence (B0F481 23-833 F348N): as the sequence (B0F481 23-833 R756K) above, with F326N, K734R counted along it
T2 sequence (B0F481 23-833 A609W): as the sequence (B0F481 23-833 R756K) above, with A587W, K734R counted along it
T12 sequence (B0F481 23-833 W392S): as the sequence (B0F481 23-833 R756K) above, with W370S, K734R counted along it
T10 sequence (B0F481 23-833 T512D): as the sequence (B0F481 23-833 R756K) above, with T490D, K734R counted along it
T5 sequence (B0F481 23-833 G513A): as the sequence (B0F481 23-833 R756K) above, with G491A, K734R counted along it

Compound	inhibition at 1 µM [1] [%]	inhibition at 1 µM [2] [%]	inhibition at 1 µM [3] [%]	inhibition at 1 µM [4] [%]	inhibition at 1 µM [5] [%]	inhibition at 1 µM [6] [%]	inhibition at 1 µM [7] [%]	inhibition at 1 µM [8] [%]	inhibition at 1 µM [9] [%]	inhibition at 1 µM [10] [%]	inhibition at 1 µM [11] [%]	inhibition at 1 µM [12] [%]	inhibition at 0.2 µM [1] [%]	inhibition at 5 µM [1] [%]	inhibition at 0.2 µM [2] [%]	inhibition at 5 µM [2] [%]	inhibition at 0.2 µM [3] [%]	inhibition at 5 µM [3] [%]	inhibition at 0.2 µM [4] [%]	inhibition at 5 µM [4] [%]	further results
CCOC(=O)c1nn(-c2ccc3c(c2)OC(F)(F)C(F)(F)O3)c2cccc(C(C)=O)c2c1=O [Compound A, ethyl 5-acetyl-4-oxo-1-(2,2,3,3-tetrafluoro-1,4-benzodioxin-6-yl)cinnoline-3-carboxylate]	3	34	4	2	64	0	33	9	10	33	42	23									
CCn1c(C)c(-c2ccc(F)cc2F)c(=O)c(C(=O)O)c1-c1ccc(Cl)c(Cl)c1 [Compound C, 2-(3,4-dichlorophenyl)-5-(2,4-difluorophenyl)-1-ethyl-6-methyl-4-oxo-pyridine-3-carboxylic acid]	5	33	0	2	63	25	42	91	31	95	55	0	9	13	21	38	7	1	0	17	inhibition at 0.2 µM [5]: 10%; inhibition at 5 µM [5]: 88%; inhibition at 0.2 µM [6]: 4%; inhibition at 5 µM [6]: 71%; inhibition at 0.2 µM [7]: 6%; inhibition at 5 µM [7]: 80%; inhibition at 0.2 µM [8]: 59%; inhibition at 5 µM [8]: 103%; inhibition at 0.2 µM [9]: 3%; inhibition at 5 µM [9]: 70%; inhibition at 0.2 µM [10]: 79%; inhibition at 5 µM [10]: 97%; inhibition at 0.2 µM [11]: 20%; inhibition at 5 µM [11]: 87%; inhibition at 0.2 µM [12]: 0%; inhibition at 5 µM [12]: 20%
CCn1c(Cn2ccc(C(F)(F)F)n2)cc(=O)c(C(=O)O)c1-c1ccc(Cl)c(Cl)c1 [Compound L, 2-(3,4-dichlorophenyl)-1-ethyl-4-oxo-6-[[3-(trifluoromethyl)pyrazol-1-yl]methyl]pyridine-3-carboxylic acid]																					inhibition at 0.01 µM [1]: 3%; inhibition at 0.075 µM [1]: 17%; inhibition at 0.5 µM [1]: 19%; inhibition at 0.01 µM [2]: 35%; inhibition at 0.075 µM [2]: 46%; inhibition at 0.5 µM [2]: 66%; inhibition at 0.01 µM [3]: 1%; inhibition at 0.075 µM [3]: 0%; inhibition at 0.5 µM [3]: 3%; inhibition at 0.01 µM [4]: 0%; inhibition at 0.075 µM [4]: 0%; inhibition at 0.5 µM [4]: 21%; inhibition at 0.01 µM [5]: 0%; inhibition at 0.075 µM [5]: 57%; inhibition at 0.5 µM [5]: 90%; inhibition at 0.01 µM [6]: 0%; inhibition at 0.075 µM [6]: 0%; inhibition at 0.5 µM [6]: 60%
CCn1c(-c2ccc(Cl)c(Cl)c2)c(C(=O)O)c(=O)c2cc(F)ccc21 [Compound M, 2-(3,4-dichlorophenyl)-1-ethyl-6-fluoro-4-oxo-quinoline-3-carboxylic acid]	0	31	0	1	58	25	36	80	19	86	17	0	5	11	24	52	0	6	0	15	inhibition at 0.2 µM [5]: 25%; inhibition at 5 µM [5]: 90%; inhibition at 0.2 µM [6]: 0%; inhibition at 5 µM [6]: 68%; inhibition at 0.2 µM [7]: 10%; inhibition at 5 µM [7]: 71%; inhibition at 0.2 µM [8]: 48%; inhibition at 5 µM [8]: 98%; inhibition at 0.2 µM [9]: 0%; inhibition at 5 µM [9]: 46%; inhibition at 0.2 µM [10]: 59%; inhibition at 5 µM [10]: 96%; inhibition at 0.2 µM [11]: 0%; inhibition at 5 µM [11]: 27%; inhibition at 0.2 µM [12]: 0%; inhibition at 5 µM [12]: 0%
